Experiment [1] deals with vascular signature, Th1 chemokine, CD8 T-effector and NK cell genes in mRCC tumor biopsies. The experiment is described as follows: Phase Ib tumor biopsy gene expression analysis (Fluidigm PCR panel, NanoString panel). In kind it is in vivo, human. The method, then:
RNA isolation was performed as described by Schleifman et al. (PLoS One 8:e74231, 2014). Briefly, tumor FFPE sections were macro dissected to enrich for neoplastic tissue, and tissue was lysed using tumor lysis buffer and Proteinase K to allow for complete digestion and release of nucleic acids. RNA was isolated using the High Pure FFPE RNA Micro Kit (Roche Applied Sciences, Indianapolis, Ind.) according to the manufacturer's protocol. DNA was isolated using the QIAAMP® DNA FFPE Tissue Kit (Qiagen, Hilden, Germany) according to the manufacturer's protocol. RNA and DNA were stored at 280 uC until the analyses were performed.
Gene-expression analysis was performed using the BioMark HD™ real-time PCR Platform (Fluidigm) as described by Schleifman et al. (PLoS One 8:e74231, 2014). All TAQMAN® assays in the expression panel used FAM™ dye-labeled TAQMAN® minor groove binder (MGB) probes and ordered through Life Technologies either made-to-order or custom-designed, including four reference genes: SP2, GUSB, TMEM55B and VPS33B. A geometric median of the Ct values for the four reference genes (SP2, GUSB, TMEM55B and VPS33B) was calculated for each sample, and expression levels were determined using the delta Ct (ΔCt) method as follows: Ct (target Gene)2GeoMedian Ct (reference genes). Median mRNA expression levels (as measured by immunochip (iChip)) across patients on study were used as cutoffs to derive high- versus low-expression categorization. P values were determined by t test.
NanoString gene expression data were processed using the R/Bioconductor package “NanoStringQCPro.” Raw counts were adjusted by positive control counts before probe- and lane-specific background was calculated based on both negative controls and blank measurements. After background correction, counts were log2 transformed and normalized by housekeeping gene expression (TMEM55B, VPS33B, TBP, and TUBB).
In addition to safety, tolerability, and clinical activity, one key objective of the phase Ib study described above was to evaluate the mechanism of combination activity. The trial design included a run-in period with bevacizumab to specifically interrogate the effects of bevacizumab on the local tumor immune microenvironment, followed by combination therapy with immune checkpoint blockade using atezolizumab. Tumor biopsies and blood were collected prior to treatment, 15-18 days following bevacizumab, and 4-6 weeks after the atezolizumab and bevacizumab combination treatment had been initiated.
To identify tumor markers associated with bevacizumab monotherapy or combination therapy, gene expression analysis was performed using both a 90 gene PCR-based Fluidigm panel and an 800 gene custom NanoString panel. […]

For experiment [2], the system named is immune and vasculature markers in mRCC tumor sections. The experiment is described as follows: Phase Ib tumor immunohistochemistry (CD34/αSMA, CD8, Ki67/CD8, MHC-I, PD-L1). In kind it is in vivo, human. As to the method: Formalin-fixed, paraffin-embedded (FFPE) tissue sections of 4 μm thickness were stained for PD-L1 with an anti-human PD-L1 rabbit monoclonal antibody (clone SP142; Ventana, Tucson, Ariz.) on an automated staining platform (BenchMark; Ventana) using a concentration of […], with signal visualization by diaminobenzidine; sections were counter-stained with haematoxylin. PD-L1 expression was evaluated on tumor cells and tumor-infiltrating immune cells. […] For tumor-infiltrating immune cells, the percentage of PD-L1-positive tumor-infiltrating immune cells occupying the tumor was determined. […] Specimens were scored as IHC 0, 1, 2, or 3 if <1%, ≥1% but <5%, ≥5% but <10%, or ≥10% of cells per area were PD-L1 positive, respectively. […]
All MHC-I IHC steps were carried out on the Ventana Discovery XT automated platform (Ventana Medical Systems; Tucson, Ariz.). […] Bound primary antibody was detected by the OMNIMAP™ anti-rabbit HRP detection kit, followed by DAB (Ventana Medical Systems; Tucson, Ariz.). […] MHC-I staining in tumor cells was scored using an H-score system. […] Relative to the overall tumor area, the percentage of cells at different staining intensities was determined by visual assessment. […] Cases were scored by two independent pathologists. […]

For the substance “bevacizumab: recombinant humanized anti-VEGF monoclonal antibody, also known as rhuMAb VEGF or AVASTIN®”, the “expression of genes associated with the neo-vasculature (VEGF downstream signaling)” value in experiment [1] (both on-treatment time points vs pre-treatment, all patients) is “significantly decreased”. The “VEGF transcript expression in tumors” value in experiment [1] (normalized to housekeeping gene expression, FIG. 11) is “upregulation”. Also, in experiment [1] (on-treatment tumor), the “consistent changes in FasL gene expression” value is on record as “not observed”. Besides, the “patients showing a significant increase in gene signatures related to Th1 signaling” value in experiment [1] (six patients with paired biopsies) was “four of the six”. Besides, the “effect on vessels, dual staining of CD34 with αSMA” value in experiment [2] (immature or unstable vessels (CD34+/αSMA−)) was “primarily affected”. The MHC-I staining entry in experiment [2] (on-treatment tumor vs pre-treatment) is “increase”.

The values are drawn from patent US11402382B2, “Diagnostic and therapeutic methods for cancer” (Genentech, Inc., priority 2017, dated 2022).
